Where “and” joins values, the source holds several entries; their conditions need not be identical. Equal values may be shown once.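 Each compound was tested at five concentrations against cells in 96-well plates for 48 hours. GI50 = concentration required for 50% inhibition of growth. TGI marks complete inhibition of growth.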
Columns and labels:
Assay in all cases: inhibition of tumour cell growth, NCI panel, 48 h
[1] = tested on: K-562 leukemia
[2] = tested on: LOX IMVI melanoma
[3] = tested on: IGROV1 ovarian
[4] = tested on: NCI-H522 lung
[5] = tested on: SF-268 CNS
[6] = tested on: MDA-N
[7] = tested on: T-47D breast
[8] = tested on: RXF 393 renal
[9] = tested on: U251 CNS
[10] = tested on: SF-295 CNS

Row | SMILES | TGI [1] [µM] | TGI [2] [µM] | TGI [3] [µM] | TGI [4] [µM] | TGI [5] [µM] | TGI [6] [µM] | TGI [7] [µM] | TGI [8] [µM] | TGI [9] [µM] | TGI [10] [µM] | GI50 [2] | GI50 [6] [µM] | GI50 [8] [µM]
1 | O=CN1CCN(C(=O)c2ccco2)C1=S | 29.5 | 14.8 | 25.3 | 17.4 | 28.8 | 24.7 | 19.3 | 20.1 | 32.5 | 51.1 | – | – | –
2 | NC(N)=NS(=O)(=O)c1ccc(NC(=O)c2cccc3c(NNc4ccc(S(N)(=O)=O)cc4)c4ccccc4nc23)cc1 | 55 | 36.5 | > 100 | 91.6 | > 100 | > 100 | 79.1 | > 100 | > 100 | > 100 | – | – | –
3 | COC(=O)C1=C(C(=O)OC)SC(=C2SC3=C(SC(=C4SCCS4)S3)S2)S1 | > 100 | > 100 | > 100 | > 100 | > 100 | > 100 | > 100 | > 100 | > 100 | > 100 | – | – | –
4 | Cc1nc(SCC(N)=O)c2sc(=S)n(-c3ccccc3)c2n1 | > 10 | > 10 | > 10 | > 10 | > 10 | > 10 | > 10 | > 10 | > 10 | > 10 | – | – | –
5 | NCCCCNCCCNC(=O)CNC(=O)CC(O)C(N)CCCC(NC(=O)C(CN)NC(=O)C(O)CNC(=O)CC(N)c1ccc(O)cc1)C(=O)O (configuration not stated) | > 10 | > 10 | > 10 | > 10 | > 10 | > 10 | > 10 | > 10 | > 10 | > 10 | – | – | –
6 | Cn1c2c(c3ccccc31)CCN1C(=O)C34CCCC3CC21S4 (configuration not stated) | > 100 | > 100 | > 100 | > 100 | > 100 | > 100 | > 100 | > 100 | > 100 | > 100 | – | – | –
7 | Cc1cc(S(=O)(=O)Nc2n[nH]c(Nc3ccccc3)n2)c(SCC(=O)O)cc1Cl | > 100 | > 100 | > 100 | > 100 | > 100 | > 100 | > 100 | > 100 | > 100 | > 100 | – | – | –
8 | S=c1[nH]nc(Cn2c3ccc(Br)cc3c3nc4ccccc4nc32)n1C1CCCCC1 | > 100 | 23 | > 100 | 67.4 | > 100 | > 93.7 | > 100 | 70.1 | > 67.6 | 49.5 | – | – | –
9 | Clc1ccc(OCc2nnc(COc3ccc(OCc4nnc(COc5ccc(Cl)cc5Cl)o4)c(Cl)c3)o2)c(Cl)c1 | 53.3 | 33.4 | 38.1 | 38 | 64.3 | > 100 | > 100 | 59.6 | 54.7 | > 100 | – | – | –
10 | CC1CCc2sc3nc4n(c(=O)c3c2C1)CC(C)S4 (configuration not stated) | > 100 | 39.8 | > 100 | > 100 | > 100 | 92.8 | > 100 | 55.2 | > 100 | 52.6 | – | – | –
11 | COc1cc2[nH]c(=O)c3cc(-c4ccccc4)cc4c(Cl)nc(c1OC)c2c43 | > 100 | > 73.6 | > 91 | > 89.2 | > 55.9 | 13.5 | > 100 | > 55.7 | 62.5 | > 100 | – | – | –
12 | O=C1/C(=C/c2ccncc2)C(n2cccc2)c2c(Br)sc(Br)c21 (configuration not stated) | 6.91 | 4.54 | 4.67 | 30.5 | 11 | 8.36 | 16.4 | 3.96 | 4.86 | 26.1 | – | – | –
13 | N#C/C(=C\c1cccc(Br)c1)c1nc2ccccc2c(=O)[nH]1 | > 100 | > 100 | > 100 | > 100 | > 100 | > 100 | > 100 | > 100 | > 100 | > 100 | – | – | –
14 | Cn1nc2c(c1N)Cc1c(nn(C)c1N)-c1ccccc1-2 | > 100 | > 100 | > 100 | > 100 | > 100 | > 100 | > 100 | > 100 | > 100 | > 100 | – | – | –
15 | COCC#C[C@@]1(O)CCCCC1CC(OC)OC (some centres not stated) | > 100 | > 100 | > 100 | 82.5 | > 100 | > 100 | > 100 | > 100 | > 100 | > 100 | – | – | –
16 | COc1ccc(C2Oc3c(OC)cc(CCCO)cc3C2CO)cc1OC (configuration not stated) | > 100 | > 100 | > 100 | > 100 | > 100 | > 100 | > 100 | > 100 | > 100 | > 100 | > 100 µM and 17 µM | – | –

Row | SMILES | TGI [1] [µM] | TGI [2] [µM] | TGI [3] [µM] | TGI [4] [µM] | TGI [5] [µM] | TGI [6] [µM] | TGI [7] [µM] | TGI [8] [µM] | TGI [9] [µM] | TGI [10] [µM] | GI50 [2] | GI50 [6] [µM] | GI50 [8] [µM]
17 | CC(=O)OCC(=O)O[C@@H]1[C@H]2[C@@H](OC(=O)c3ccccc3)[C@@H](C)C[C@]2(O)[C@H](OC(C)=O)[C@@]2(C)C[C@]1(OC(C)=O)C[C@H]1C(=O)C(C)(C)[C@@H](OC(C)=O)[C@@H]12 | > 25 | > 25 | > 25 | > 25 | > 25 | > 25 | > 25 | > 25 | > 25 | > 25 | – | – | –
18 | O=C(Sc1c(-c2ccccc2)c(=O)n(-c2ccccc2)c(=S)n1-c1ccccc1)c1ccco1 | > 100 | > 100 | > 100 | > 100 | > 100 | > 100 | > 100 | > 100 | > 100 | > 100 | – | – | –
19 | CCCCCCCCCCCCOCCOCCOCCOCCOCCOCC(=O)NC(Cc1ccccc1)C(=O)Oc1ccc([N+](=O)[O-])cc1 (configuration not stated) | > 100 | > 100 | > 100 | > 100 | > 100 | > 100 | > 100 | > 100 | > 100 | > 100 | – | – | –
20 | CCCCCCCCCCCCNC(=O)CCC(NC(=O)c1ccc(N(C)Cc2cnc3nc(N)nc(N)c3n2)cc1)C(=O)NCCCCCCCCCCCC (configuration not stated) | 62.6 | 30.7 | > 100 | > 100 | > 100 | > 100 | 61.5 | 43.3 | 24.7 | > 100 | – | – | –
21 | O=C(OC12CC3CC(CC(C3)C1)C2)c1ccc(NCc2cc(O)ccc2O)cc1 | 2.38 | 8.94 | 0.816 | 0.237 | 5.69 | 6.56 | 1.04 | 1.02 | 2.69 | 7.5 | – | – | –
22 | O=C(O)C1=NN(c2ccc(S(=O)(=O)O)cc2)C2(C1)C(Cl)C(=O)N2c1nc2ccccc2s1 (configuration not stated) | 58.5 | 12.7 | 21.5 | 25.8 | 39.8 | 53.1 | 44.8 | 34.8 | 32.1 | 32.3 | – | – | –
23 | CCN(CC)c1ccc(NC(=S)NN(C)C)cc1 | > 10 | > 10 | > 10 | > 10 | > 10 | > 10 | > 10 | > 10 | > 10 | > 10 | – | – | –
24 | CN(C)CCCNc1cc(O)c2c(c1O)C(=O)c1ccccc1C2=O | 21.6 | 24.8 | 24.6 | 40.7 | 36.4 | 27.4 | 36.5 | 17 | 27.2 | 25.9 | – | – | –
25 | C=C1C[C@@H]2CC[C@@]34C[C@H]5O[C@H]6[C@@H](O3)[C@H]3O[C@H](CC[C@@H]3O[C@H]6[C@H]5O4)CC(=O)C[C@@H]3[C@@H](OC)[C@@H](C[C@H](O)CN)O[C@H]3C[C@H]3O[C@@H](CC[C@@H]1O2)C[C@@H](C)C3=C | > 1 | > 0.533 | > 0.253 | 0.0412 | > 1 | 0.000354 | > 1 | – | > 0.199 | 0.251 | – | 0.0001 | 0.00255
26 | N#Cc1nc(CCCN2C(=O)c3ccccc3C2=O)oc1N | > 100 | > 100 | > 100 | > 100 | > 100 | > 100 | > 100 | > 100 | > 100 | > 100 | – | – | –
27 | CC1(C)OC[C@@H](C[C@H](O)COCc2ccccc2)O1 | > 100 | > 100 | > 100 | > 100 | > 100 | > 100 | > 100 | > 100 | > 100 | > 100 | – | – | –
28 | COc1ccc(OC/C(N=Cc2ccncc2)=N/NC(=O)c2ccncc2)cc1 | > 100 | > 100 | > 100 | > 100 | > 100 | 39.8 | > 100 | > 100 | > 100 | > 100 | – | – | –
29 | O=C(/C=C\Nc1ccccc1O)C(F)(F)F | > 100 | > 100 | > 100 | > 100 | > 100 | > 100 | > 100 | > 100 | > 100 | > 100 | – | – | –
30 | O=[N+]([O-])/C(Cl)=C(/C(Cl)=C(Cl)Cl)N1CCCCC1 | 25.3 | 25.5 | 23.4 | 23.2 | 75.1 | 23.9 | 34 | 20.6 | 26.8 | 54.3 | – | – | –
31 | Clc1cc(C(c2cc(Cl)sc2Cl)c2cc(Cl)sc2Cl)c(Cl)s1 | > 100 | > 100 | > 100 | > 100 | > 100 | > 100 | > 100 | > 100 | > 100 | > 100 | – | – | –
32 | O=c1ccn(-c2ccccn2)c(=O)n1-c1ccccn1 | > 100 | > 100 | > 100 | > 100 | > 100 | > 100 | > 100 | > 100 | > 100 | > 100 | – | – | –
